test system: M-07e cells; test: M-07e cellular assay (SCF-mediated cell proliferation); type: cell-based; settings: Homo sapiens, 72 hours, CellTiter Glo
Summary of the method: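 Readout came from CellTiter Glo after 72 h of compound treatment in SCF (EC90)-stimulated, pre-starved M-07e cells at 37 °C.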

| Structure (SMILES) | EC50 |
| --- | --- |
| Cc1ccc(-c2noc([C@H]3C[C@@H]3F)n2)cc1NC(=O)c1cnn2ccc(N3CC(C(=O)OC(C)(C)C)C3)cc12 [Example 208] | 100 to 1000 nM |
| Cc1ccc(-c2noc([C@H]3C[C@@H]3F)n2)cc1NC(=O)c1cnn2ccc(NCC3(CO)COC3)cc12 [Example 241-8] | < 100 nM |
| Cc1cc(F)c(-c2noc([C@H]3C[C@@H]3F)n2)cc1NC(=O)c1cnn2ccc(N3CC4(COC4)C3)cc12 [Example 281-42] | < 100 nM |
| Cc1cc2cc(-c3ncc(C(=O)Nc4cc(-c5noc([C@H]6C[C@@H]6F)n5)ccc4C)o3)ccc2[nH]1 [Example 308-27] | < 100 nM |
| [2H]C([2H])([2H])n1nnc(-c2cnc(C)c(NC(=O)c3cnn4ccc(N5CC6(C5)CC(O)(C(F)F)C6)cc34)c2)n1 [Example 312-4] | < 100 nM |
| Cc1ccc(-c2noc([C@H]3C[C@@H]3F)n2)cc1NC(=O)c1cnn2cccnc12 [Example 7] | > 1000 nM |
| COC(=O)Nc1ccc(-c2ncc(C(=O)Nc3cc(-c4noc([C@H]5C[C@@H]5F)n4)ccc3C)o2)cc1 [Example 308-48] | 100 to 1000 nM |
| Cc1ncc(-c2ccc(C3CC3)cn2)cc1NC(=O)c1cnn2ccc(N3CC4(COC4)C3)cc12 [Example 357] | < 100 nM |
| Cc1ccc(-c2noc([C@H]3C[C@H](OC(F)F)C3)n2)cc1NC(=O)c1cnn2ccc(N3CC4(COC4)C3)cc12 [Example 247] | < 100 nM |
| Cc1ccc(-c2noc([C@H]3C[C@@H]3F)n2)cc1NC(=O)c1cnn2cc(F)c(N3CC4(COC4)C3)cc12 [Example 206] | 100 to 1000 nM |
| CC#Cc1ccc2c(C(=O)Nc3cc(-c4noc([C@H]5C[C@@H]5F)n4)c(F)cc3C)cnn2c1 [Example 132-2] | 100 to 1000 nM |
| Cc1ccc(-c2noc([C@H]3C[C@@H]3F)n2)cc1NC(=O)c1cnn2ccccc12 [Example 6] | < 100 nM |
| CC(=O)Nc1ccc(-c2ncc(C(=O)Nc3cc(-c4noc([C@H]5C[C@@H]5F)n4)ccc3C)o2)cc1 [Example 308-19] | 100 to 1000 nM |
| Cc1ccc(-c2noc([C@H]3C[C@@H]3F)n2)cc1NC(=O)c1cnn2ccc(N3C[C@@H](F)[C@@H]3C)cc12 [Example 224] | < 100 nM |
| CC(=O)NC1CN(c2ncc(C(=O)Nc3cc(-c4noc([C@H]5C[C@@H]5F)n4)ccc3C)s2)C1 [Example 98-2] | > 1000 nM |
| Cc1ccc(-c2noc([C@H]3C[C@@H]3F)n2)cc1NC(=O)c1cnc(-c2cccc3[nH]ccc23)o1 [Example 308-29] | 100 to 1000 nM |
| Cc1ncc(-c2ccc(OC(F)(F)F)cn2)cc1NC(=O)c1cnn2ccc(N3CC4(COC4)C3)cc12 [Example 332] | < 100 nM |
| Cc1ccc(-c2noc([C@H]3C[C@@H]3F)n2)cc1NC(=O)c1cnn2ccc(N3CCN(C(=O)OC(C)(C)C)C[C@H]3C)cc12 [Example 190] | 100 to 1000 nM |
| COc1ccccc1-c1ncc(C(=O)Nc2cc(-c3noc([C@H]4C[C@@H]4F)n3)ccc2C)o1 [Example 284] | > 1000 nM |
| Cc1nnc(N2CC(c3nc(-c4cnc(C)c(NC(=O)c5cnn6ccc(N7CC8(COC8)C7)cc56)c4)no3)C2)o1 [Example 281-71] | > 1000 nM |
| Cc1ccc(-c2noc([C@H]3C[C@@H](OC(F)(F)F)C3)n2)cc1NC(=O)c1cnn2ccc(N3CC4(C3)CC(O)(C(F)F)C4)cc12 [Example 281-21] | < 100 nM |
| COC(=O)N1CC(Cc2nc(-c3ccc(C)c(NC(=O)c4cnn5ccc(N6CC7(COC7)C6)cc45)c3)no2)C1 [Example 281-29] | 100 to 1000 nM |
| Cc1ncc(-c2noc([C@H]3C[C@@H](OC(F)F)C3)n2)cc1NC(=O)c1cnn2ccc(N3CC4(COC4)C3)cc12 [Example 269] | < 100 nM |
| [2H]C([2H])([2H])c1ccc(-c2noc([C@H]3C[C@@H]3F)n2)cc1NC(=O)c1cnn2ccc(N3CC4(COC4)C3)cc12 [Example 281-3] | < 100 nM |
| Cc1ccc(-c2noc([C@@H]3C[C@H]3C(F)F)n2)cc1NC(=O)c1cnn2ccc(N3CC4(COC4)C3)cc12 [Example 281-1] | < 100 nM |
| Cc1ncc(-c2noc([C@H]3CN(C(=O)C4(F)CC4)[C@@H]3C)n2)cc1NC(=O)c1cnn2ccc(N3CC4(C3)CC(O)(C(F)F)C4)cc12 [Example 281-15] | 100 to 1000 nM |
| Cc1ccc(-c2noc(C3CCN(C(=O)[C@H]4C[C@@H]4F)C3)n2)cc1NC(=O)c1cnn2ccc(N3CC4(COC4)C3)cc12 (stereo partly drawn) [Example 281-92] | 100 to 1000 nM |

target: Recombinant human c-KIT kinase (Homo sapiens (Human), UniProt P10721); test: c-KIT kinase chemiluminescence assay (ADP-Glo); type: biochemical; settings: ATP 50 μM
Sequence (P10721 26-976): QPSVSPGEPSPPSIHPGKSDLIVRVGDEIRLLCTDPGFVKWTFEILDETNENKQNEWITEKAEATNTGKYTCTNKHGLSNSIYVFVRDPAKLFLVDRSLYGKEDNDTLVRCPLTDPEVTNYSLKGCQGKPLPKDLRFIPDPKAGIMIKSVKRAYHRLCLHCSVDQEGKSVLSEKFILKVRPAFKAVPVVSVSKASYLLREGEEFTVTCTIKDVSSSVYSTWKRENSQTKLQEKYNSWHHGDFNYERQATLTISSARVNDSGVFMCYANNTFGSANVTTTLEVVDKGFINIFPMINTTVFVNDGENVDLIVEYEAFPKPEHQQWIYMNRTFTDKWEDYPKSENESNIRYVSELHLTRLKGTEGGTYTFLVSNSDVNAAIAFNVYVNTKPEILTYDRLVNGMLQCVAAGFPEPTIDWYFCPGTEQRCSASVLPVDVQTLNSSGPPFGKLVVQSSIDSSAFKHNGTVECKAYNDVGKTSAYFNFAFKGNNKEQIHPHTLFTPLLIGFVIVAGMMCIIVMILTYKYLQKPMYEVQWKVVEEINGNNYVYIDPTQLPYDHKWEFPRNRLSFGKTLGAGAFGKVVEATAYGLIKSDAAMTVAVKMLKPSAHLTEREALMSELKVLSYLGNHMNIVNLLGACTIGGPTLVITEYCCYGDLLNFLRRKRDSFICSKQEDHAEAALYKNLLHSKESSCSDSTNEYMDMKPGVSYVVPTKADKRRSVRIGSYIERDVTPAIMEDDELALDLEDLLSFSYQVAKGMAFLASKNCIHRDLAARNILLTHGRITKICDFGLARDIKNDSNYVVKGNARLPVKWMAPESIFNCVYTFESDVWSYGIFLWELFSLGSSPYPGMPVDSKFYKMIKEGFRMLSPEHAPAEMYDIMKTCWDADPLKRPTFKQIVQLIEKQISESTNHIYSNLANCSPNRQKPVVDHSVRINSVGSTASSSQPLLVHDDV
Summary of the method: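 ADP formed by c-KIT on polyEY over 2 h at RT (after 30 min enzyme preincubation; Tris pH 7.5, MgCl2, BSA, DTT buffer) was detected by ADP-Glo luminescence. IC50 and Hill slope were fitted to control-normalized activity across compound concentrations.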

| Structure (SMILES) | IC50 |
| --- | --- |
| Cc1ccc(-c2noc([C@H]3C[C@@H]3F)n2)cc1NC(=O)c1cnn2ccc(N3CC(C(=O)OC(C)(C)C)C3)cc12 [Example 208] | 100 to 1000 nM |
| Cc1ccc(-c2noc([C@H]3C[C@@H]3F)n2)cc1NC(=O)c1cnn2cccnc12 [Example 7] | > 1000 nM |
| Cc1ncc(-c2ccc(C3CC3)cn2)cc1NC(=O)c1cnn2ccc(N3CC4(COC4)C3)cc12 [Example 357] | 100 to 1000 nM |
| Cc1ccc(-c2noc([C@H]3C[C@H](OC(F)F)C3)n2)cc1NC(=O)c1cnn2ccc(N3CC4(COC4)C3)cc12 [Example 247] | < 100 nM |
| Cc1ccc(-c2noc([C@H]3C[C@@H]3F)n2)cc1NC(=O)c1cnn2cc(F)c(N3CC4(COC4)C3)cc12 [Example 206] | 100 to 1000 nM |
| Cc1ccc(-c2noc([C@H]3C[C@@H]3F)n2)cc1NC(=O)c1cnn2ccccc12 [Example 6] | < 100 nM |
| Cc1ccc(-c2noc([C@H]3C[C@@H]3F)n2)cc1NC(=O)c1cnn2ccc(N3C[C@@H](F)[C@@H]3C)cc12 [Example 224] | < 100 nM |
| Cc1ncc(-c2ccc(OC(F)(F)F)cn2)cc1NC(=O)c1cnn2ccc(N3CC4(COC4)C3)cc12 [Example 332] | 100 to 1000 nM |
| Cc1ccc(-c2noc([C@H]3C[C@@H]3F)n2)cc1NC(=O)c1cnn2ccc(N3CCN(C(=O)OC(C)(C)C)C[C@H]3C)cc12 [Example 190] | 100 to 1000 nM |
| COc1ccccc1-c1ncc(C(=O)Nc2cc(-c3noc([C@H]4C[C@@H]4F)n3)ccc2C)o1 [Example 284] | > 1000 nM |
| Cc1ncc(-c2noc([C@H]3C[C@@H](OC(F)F)C3)n2)cc1NC(=O)c1cnn2ccc(N3CC4(COC4)C3)cc12 [Example 269] | 100 to 1000 nM |

Second part, the molecule after the results:

| IC50 | Structure (SMILES) |
| --- | --- |
| < 100 nM | Cc1ccc(-c2noc([C@H]3C[C@@H]3F)n2)cc1NC(=O)c1cnn2ccc(NCC3(CO)COC3)cc12 [Example 241-8] |
| < 100 nM | Cc1cc(F)c(-c2noc([C@H]3C[C@@H]3F)n2)cc1NC(=O)c1cnn2ccc(N3CC4(COC4)C3)cc12 [Example 281-42] |
| < 100 nM | Cc1cc2cc(-c3ncc(C(=O)Nc4cc(-c5noc([C@H]6C[C@@H]6F)n5)ccc4C)o3)ccc2[nH]1 [Example 308-27] |
| 100 to 1000 nM | [2H]C([2H])([2H])n1nnc(-c2cnc(C)c(NC(=O)c3cnn4ccc(N5CC6(C5)CC(O)(C(F)F)C6)cc34)c2)n1 [Example 312-4] |
| 100 to 1000 nM | COC(=O)Nc1ccc(-c2ncc(C(=O)Nc3cc(-c4noc([C@H]5C[C@@H]5F)n4)ccc3C)o2)cc1 [Example 308-48] |
| 100 to 1000 nM | CC#Cc1ccc2c(C(=O)Nc3cc(-c4noc([C@H]5C[C@@H]5F)n4)c(F)cc3C)cnn2c1 [Example 132-2] |
| 100 to 1000 nM | CC(=O)Nc1ccc(-c2ncc(C(=O)Nc3cc(-c4noc([C@H]5C[C@@H]5F)n4)ccc3C)o2)cc1 [Example 308-19] |
| > 1000 nM | CC(=O)NC1CN(c2ncc(C(=O)Nc3cc(-c4noc([C@H]5C[C@@H]5F)n4)ccc3C)s2)C1 [Example 98-2] |
| < 100 nM | Cc1ccc(-c2noc([C@H]3C[C@@H]3F)n2)cc1NC(=O)c1cnc(-c2cccc3[nH]ccc23)o1 [Example 308-29] |
| > 1000 nM | Cc1nnc(N2CC(c3nc(-c4cnc(C)c(NC(=O)c5cnn6ccc(N7CC8(COC8)C7)cc56)c4)no3)C2)o1 [Example 281-71] |
| < 100 nM | Cc1ccc(-c2noc([C@H]3C[C@@H](OC(F)(F)F)C3)n2)cc1NC(=O)c1cnn2ccc(N3CC4(C3)CC(O)(C(F)F)C4)cc12 [Example 281-21] |
| 100 to 1000 nM | COC(=O)N1CC(Cc2nc(-c3ccc(C)c(NC(=O)c4cnn5ccc(N6CC7(COC7)C6)cc45)c3)no2)C1 [Example 281-29] |
| < 100 nM | [2H]C([2H])([2H])c1ccc(-c2noc([C@H]3C[C@@H]3F)n2)cc1NC(=O)c1cnn2ccc(N3CC4(COC4)C3)cc12 [Example 281-3] |
| < 100 nM | Cc1ccc(-c2noc([C@@H]3C[C@H]3C(F)F)n2)cc1NC(=O)c1cnn2ccc(N3CC4(COC4)C3)cc12 [Example 281-1] |
| 100 to 1000 nM | Cc1ncc(-c2noc([C@H]3CN(C(=O)C4(F)CC4)[C@@H]3C)n2)cc1NC(=O)c1cnn2ccc(N3CC4(C3)CC(O)(C(F)F)C4)cc12 [Example 281-15] |
| 100 to 1000 nM | Cc1ccc(-c2noc(C3CCN(C(=O)[C@H]4C[C@@H]4F)C3)n2)cc1NC(=O)c1cnn2ccc(N3CC4(COC4)C3)cc12 (stereo partly drawn) [Example 281-92] |

From US20250059174A1, “Pharmaceutical Compounds and Compositions as C-Kit Kinase Inhibitors” (Enanta Pharmaceuticals, Inc., priority 2023, published 2025)
